Data published in ChEMBL document CHEMBL4507273 (2021).

How the values were obtained:
[1] = biological target: Mitogen-activated protein kinase kinase kinase 9 (Homo sapiens) (UniProt P80192); conditions: Compound concentration 1000.0 nM
[2] = test system: Receptor-type tyrosine-protein kinase FLT3 (Homo sapiens), P36888 [K663Q]; conditions: Compound concentration 1000.0 nM
[3] = biological target: Ephrin type-B receptor 3 (Homo sapiens) (UniProt P54753); conditions: Compound concentration 1000.0 nM
[4] = biological target: Death-associated protein kinase 3 (Homo sapiens) (UniProt O43293); conditions: Compound concentration 1000.0 nM
[5] = biological target: Rho-associated protein kinase 2 (Homo sapiens) (UniProt O75116); conditions: Compound concentration 1000.0 nM
[6] = test system: Epidermal growth factor receptor (Homo sapiens), P00533 [UNDEFINED MUTATION]; conditions: Compound concentration 1000.0 nM
[7] = biological target: Ephrin type-A receptor 4 (Homo sapiens) (UniProt P54764); conditions: Compound concentration 1000.0 nM
[8] = biological target: Sigma non-opioid intracellular receptor 1 (Homo sapiens) (UniProt Q99720); conditions: Compound concentration 10.0 uM
[9] = biological target: Serine/threonine-protein kinase DCLK3 (Homo sapiens) (UniProt Q9C098); conditions: Compound concentration 1000.0 nM
[10] = biological target: Angiopoietin-1 receptor (Homo sapiens) (UniProt Q02763); conditions: Compound concentration 1000.0 nM
[11] = biological target: Muscarinic acetylcholine receptor M3 (Homo sapiens, UniProt P20309); conditions: Compound concentration 10.0 uM
[12] = biological target: MAP kinase-interacting serine/threonine-protein kinase 1 (Homo sapiens) (UniProt Q9BUB5); conditions: Compound concentration 1000.0 nM
[13] = biological target: Serine/threonine-protein kinase Sgk2 (Homo sapiens) (UniProt Q9HBY8); conditions: Compound concentration 1000.0 nM
[14] = test system: Tyrosine-protein kinase ABL1 (Homo sapiens), P00519 [F317L]; conditions: Compound concentration 1000.0 nM
[15] = biological target: Dual specificity mitogen-activated protein kinase kinase 1 (Homo sapiens) (UniProt Q02750); conditions: Compound concentration 1000.0 nM
[16] = biological target: Macrophage-stimulating protein receptor (Homo sapiens) (UniProt Q04912); conditions: Compound concentration 1000.0 nM
[17] = biological target: Serine/threonine-protein kinase Sgk1 (Homo sapiens) (UniProt O00141); conditions: Compound concentration 1000.0 nM
D(3) dopamine receptor = D(3) dopamine receptor (Homo sapiens, UniProt P35462); assay: GPCRScan assay: inhibition of D3; design: radioligand conc. used [nm] 0.5 – 1.8, parental cells HEKT
[18] = biological target: Ribosomal protein S6 kinase alpha-6 (Homo sapiens) (UniProt Q9UK32); conditions: Compound concentration 1000.0 nM
[19] = biological target: Mitogen-activated protein kinase kinase kinase kinase 3 (Homo sapiens) (UniProt Q8IVH8); conditions: Compound concentration 1000.0 nM
[20] = biological target: Serine/threonine-protein kinase WNK4 (Homo sapiens) (UniProt Q96J92); conditions: Compound concentration 1000.0 nM
[21] = biological target: BMP-2-inducible protein kinase (Homo sapiens) (UniProt Q9NSY1); conditions: Compound concentration 1000.0 nM
[22] = biological target: 5-hydroxytryptamine receptor 3A (Homo sapiens) (UniProt P46098); conditions: Compound concentration 10.0 uM
[23] = biological target: Interleukin-1 receptor-associated kinase 1 (Homo sapiens) (UniProt P51617); conditions: Compound concentration 1000.0 nM
[24] = biological target: Dual specificity mitogen-activated protein kinase kinase 7 (Homo sapiens) (UniProt O14733); conditions: Compound concentration 1000.0 nM
[25] = biological target: Mitogen-activated protein kinase 4 (Homo sapiens) (UniProt P31152); conditions: Compound concentration 1000.0 nM
[26] = test system: Proto-oncogene tyrosine-protein kinase receptor Ret (Homo sapiens), P07949 [V804L]; conditions: Compound concentration 1000.0 nM
[27] = biological target: Mitogen-activated protein kinase 10 (Homo sapiens) (UniProt P53779); conditions: Compound concentration 1000.0 nM
[28] = biological target: Serine/threonine-protein kinase TAO3 (Homo sapiens) (UniProt Q9H2K8); conditions: Compound concentration 1000.0 nM
[29] = biological target: Activin receptor type-2A (Homo sapiens) (UniProt P27037); conditions: Compound concentration 1000.0 nM
[30] = biological target: Serine/threonine-protein kinase tousled-like 1 (Homo sapiens) (UniProt Q9UKI8); conditions: Compound concentration 1000.0 nM
[31] = biological target: 5-hydroxytryptamine receptor 2B (Homo sapiens, UniProt P41595); assay: GPCRScan assay: inhibition of 5-HT2B; design: radioligand conc. used [nm] 1.0 – 2.0, parental cells stable HEK
[32] = biological target: Serine/threonine-protein kinase Nek7 (Homo sapiens) (UniProt Q8TDX7); conditions: Compound concentration 1000.0 nM
[33] = biological target: Interleukin-1 receptor-associated kinase 3 (Homo sapiens) (UniProt Q9Y616); conditions: Compound concentration 1000.0 nM
[34] = biological target: Protein kinase C iota type (Homo sapiens) (UniProt P41743); conditions: Compound concentration 1000.0 nM
[35] = biological target: Mitogen-activated protein kinase kinase kinase 14 (Homo sapiens) (UniProt Q99558); conditions: Compound concentration 1000.0 nM
[36] = biological target: Ephrin type-A receptor 3 (Homo sapiens) (UniProt P29320); conditions: Compound concentration 1000.0 nM
[37] = biological target: Membrane-associated tyrosine- and threonine-specific cdc2-inhibitory kinase (Homo sapiens) (UniProt Q99640); conditions: Compound concentration 1000.0 nM
[38] = biological target: Tyrosine-protein kinase receptor UFO (Homo sapiens) (UniProt P30530); conditions: Compound concentration 1000.0 nM
[39] = biological target: Serine/threonine-protein kinase MAK (Homo sapiens) (UniProt P20794); conditions: Compound concentration 1000.0 nM
[40] = biological target: Serine/threonine-protein kinase haspin (Homo sapiens) (UniProt Q8TF76); conditions: Compound concentration 1000.0 nM
[41] = test system: Receptor-type tyrosine-protein kinase FLT3 (Homo sapiens), P36888 [UNDEFINED MUTATION]; conditions: Compound concentration 1000.0 nM
[42] = biological target: Serine/threonine-protein kinase 16 (Homo sapiens) (UniProt O75716); conditions: Compound concentration 1000.0 nM
[43] = biological target: Dual specificity mitogen-activated protein kinase kinase 4 (Homo sapiens) (UniProt P45985); conditions: Compound concentration 1000.0 nM
[44] = biological target: TGF-beta receptor type-2 (Homo sapiens) (UniProt P37173); conditions: Compound concentration 1000.0 nM

Sequence of Interleukin-1 receptor-associated kinase 1 (Homo sapiens) (P51617 whole entry, looked up): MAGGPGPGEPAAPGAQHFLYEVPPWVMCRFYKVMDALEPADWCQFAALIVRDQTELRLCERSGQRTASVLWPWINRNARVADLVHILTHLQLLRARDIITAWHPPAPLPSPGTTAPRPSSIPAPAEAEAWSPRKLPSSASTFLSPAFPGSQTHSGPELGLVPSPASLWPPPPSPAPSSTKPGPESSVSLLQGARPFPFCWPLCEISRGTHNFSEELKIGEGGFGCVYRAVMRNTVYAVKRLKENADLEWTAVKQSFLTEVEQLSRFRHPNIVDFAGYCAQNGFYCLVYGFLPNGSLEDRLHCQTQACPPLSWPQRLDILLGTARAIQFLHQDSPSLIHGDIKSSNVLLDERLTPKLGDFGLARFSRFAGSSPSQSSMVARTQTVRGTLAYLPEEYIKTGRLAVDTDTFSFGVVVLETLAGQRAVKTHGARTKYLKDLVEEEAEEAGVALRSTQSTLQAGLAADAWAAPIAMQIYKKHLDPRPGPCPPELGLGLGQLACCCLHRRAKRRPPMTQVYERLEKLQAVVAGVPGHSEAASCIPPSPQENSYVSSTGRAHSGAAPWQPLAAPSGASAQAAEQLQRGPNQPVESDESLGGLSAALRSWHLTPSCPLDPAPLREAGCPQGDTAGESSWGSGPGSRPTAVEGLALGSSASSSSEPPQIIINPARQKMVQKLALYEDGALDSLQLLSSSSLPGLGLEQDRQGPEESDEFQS
Sequence of Serine/threonine-protein kinase Nek7 (Homo sapiens) (Q8TDX7 whole entry, looked up): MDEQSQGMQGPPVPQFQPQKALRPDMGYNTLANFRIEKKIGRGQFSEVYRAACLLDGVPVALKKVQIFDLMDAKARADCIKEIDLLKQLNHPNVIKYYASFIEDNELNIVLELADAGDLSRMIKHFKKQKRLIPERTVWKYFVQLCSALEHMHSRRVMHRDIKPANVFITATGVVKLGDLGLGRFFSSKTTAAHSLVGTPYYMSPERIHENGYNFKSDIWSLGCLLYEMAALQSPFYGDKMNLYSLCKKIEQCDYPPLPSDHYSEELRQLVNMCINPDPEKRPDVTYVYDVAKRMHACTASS
Sequence of Rho-associated protein kinase 2 (Homo sapiens) (O75116 whole entry, looked up): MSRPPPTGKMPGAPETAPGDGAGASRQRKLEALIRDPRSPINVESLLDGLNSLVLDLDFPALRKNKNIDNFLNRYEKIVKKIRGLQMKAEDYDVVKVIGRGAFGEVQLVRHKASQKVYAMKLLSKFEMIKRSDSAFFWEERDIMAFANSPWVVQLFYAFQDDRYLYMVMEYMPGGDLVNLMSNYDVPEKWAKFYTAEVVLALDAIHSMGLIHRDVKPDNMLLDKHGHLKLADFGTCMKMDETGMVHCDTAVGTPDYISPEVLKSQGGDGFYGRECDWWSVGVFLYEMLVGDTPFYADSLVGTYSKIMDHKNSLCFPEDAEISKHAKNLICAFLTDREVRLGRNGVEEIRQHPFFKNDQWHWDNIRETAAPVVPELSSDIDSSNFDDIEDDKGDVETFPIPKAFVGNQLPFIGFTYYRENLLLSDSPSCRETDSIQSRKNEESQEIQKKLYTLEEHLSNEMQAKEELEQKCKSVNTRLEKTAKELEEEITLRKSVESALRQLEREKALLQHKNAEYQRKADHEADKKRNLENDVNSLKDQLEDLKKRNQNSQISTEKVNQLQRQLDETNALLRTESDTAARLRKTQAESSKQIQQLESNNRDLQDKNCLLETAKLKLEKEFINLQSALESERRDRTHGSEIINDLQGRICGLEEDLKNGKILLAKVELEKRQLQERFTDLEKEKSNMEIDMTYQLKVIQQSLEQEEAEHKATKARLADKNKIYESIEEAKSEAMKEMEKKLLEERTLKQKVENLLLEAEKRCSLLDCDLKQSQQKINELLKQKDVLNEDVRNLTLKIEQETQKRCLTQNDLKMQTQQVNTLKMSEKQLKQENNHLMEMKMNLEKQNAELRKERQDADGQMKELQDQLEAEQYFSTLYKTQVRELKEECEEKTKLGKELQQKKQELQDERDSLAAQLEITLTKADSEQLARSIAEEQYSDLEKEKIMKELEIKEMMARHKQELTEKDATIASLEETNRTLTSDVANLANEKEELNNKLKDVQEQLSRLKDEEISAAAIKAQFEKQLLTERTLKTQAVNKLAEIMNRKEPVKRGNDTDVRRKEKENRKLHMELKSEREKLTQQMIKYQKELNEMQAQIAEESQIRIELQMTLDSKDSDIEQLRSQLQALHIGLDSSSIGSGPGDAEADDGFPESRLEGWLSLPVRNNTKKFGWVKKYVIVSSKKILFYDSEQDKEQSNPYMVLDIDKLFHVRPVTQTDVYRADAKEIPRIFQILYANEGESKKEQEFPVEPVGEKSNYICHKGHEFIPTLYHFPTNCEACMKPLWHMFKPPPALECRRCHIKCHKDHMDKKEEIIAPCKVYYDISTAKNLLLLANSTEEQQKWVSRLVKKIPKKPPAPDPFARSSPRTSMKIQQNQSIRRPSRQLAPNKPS
Sequence of Serine/threonine-protein kinase TAO3 (Homo sapiens) (Q9H2K8 whole entry): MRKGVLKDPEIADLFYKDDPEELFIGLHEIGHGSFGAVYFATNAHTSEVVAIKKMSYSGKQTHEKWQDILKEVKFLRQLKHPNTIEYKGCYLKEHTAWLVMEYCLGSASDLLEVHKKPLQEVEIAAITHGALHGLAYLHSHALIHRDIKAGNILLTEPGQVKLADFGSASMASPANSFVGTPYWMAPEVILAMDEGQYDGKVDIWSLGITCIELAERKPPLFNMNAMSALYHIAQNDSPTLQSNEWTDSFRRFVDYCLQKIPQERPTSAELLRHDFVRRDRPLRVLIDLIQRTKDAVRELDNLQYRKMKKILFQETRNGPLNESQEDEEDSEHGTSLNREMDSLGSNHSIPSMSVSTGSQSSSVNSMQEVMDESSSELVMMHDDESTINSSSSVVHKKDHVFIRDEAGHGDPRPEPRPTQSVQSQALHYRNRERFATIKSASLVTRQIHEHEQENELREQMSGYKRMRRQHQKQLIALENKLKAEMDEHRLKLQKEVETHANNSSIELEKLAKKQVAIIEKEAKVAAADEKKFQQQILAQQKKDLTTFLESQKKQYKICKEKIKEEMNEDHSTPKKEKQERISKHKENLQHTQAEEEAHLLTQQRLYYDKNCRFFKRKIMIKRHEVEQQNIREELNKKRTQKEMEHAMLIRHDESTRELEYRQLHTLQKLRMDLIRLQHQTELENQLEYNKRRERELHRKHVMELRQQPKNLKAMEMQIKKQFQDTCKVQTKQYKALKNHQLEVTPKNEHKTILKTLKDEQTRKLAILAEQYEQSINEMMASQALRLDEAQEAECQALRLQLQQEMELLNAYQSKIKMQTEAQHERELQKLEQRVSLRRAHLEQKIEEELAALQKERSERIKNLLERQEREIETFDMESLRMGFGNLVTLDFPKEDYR
Sequence of Mitogen-activated protein kinase kinase kinase 14 (Homo sapiens) (Q99558 whole entry, looked up): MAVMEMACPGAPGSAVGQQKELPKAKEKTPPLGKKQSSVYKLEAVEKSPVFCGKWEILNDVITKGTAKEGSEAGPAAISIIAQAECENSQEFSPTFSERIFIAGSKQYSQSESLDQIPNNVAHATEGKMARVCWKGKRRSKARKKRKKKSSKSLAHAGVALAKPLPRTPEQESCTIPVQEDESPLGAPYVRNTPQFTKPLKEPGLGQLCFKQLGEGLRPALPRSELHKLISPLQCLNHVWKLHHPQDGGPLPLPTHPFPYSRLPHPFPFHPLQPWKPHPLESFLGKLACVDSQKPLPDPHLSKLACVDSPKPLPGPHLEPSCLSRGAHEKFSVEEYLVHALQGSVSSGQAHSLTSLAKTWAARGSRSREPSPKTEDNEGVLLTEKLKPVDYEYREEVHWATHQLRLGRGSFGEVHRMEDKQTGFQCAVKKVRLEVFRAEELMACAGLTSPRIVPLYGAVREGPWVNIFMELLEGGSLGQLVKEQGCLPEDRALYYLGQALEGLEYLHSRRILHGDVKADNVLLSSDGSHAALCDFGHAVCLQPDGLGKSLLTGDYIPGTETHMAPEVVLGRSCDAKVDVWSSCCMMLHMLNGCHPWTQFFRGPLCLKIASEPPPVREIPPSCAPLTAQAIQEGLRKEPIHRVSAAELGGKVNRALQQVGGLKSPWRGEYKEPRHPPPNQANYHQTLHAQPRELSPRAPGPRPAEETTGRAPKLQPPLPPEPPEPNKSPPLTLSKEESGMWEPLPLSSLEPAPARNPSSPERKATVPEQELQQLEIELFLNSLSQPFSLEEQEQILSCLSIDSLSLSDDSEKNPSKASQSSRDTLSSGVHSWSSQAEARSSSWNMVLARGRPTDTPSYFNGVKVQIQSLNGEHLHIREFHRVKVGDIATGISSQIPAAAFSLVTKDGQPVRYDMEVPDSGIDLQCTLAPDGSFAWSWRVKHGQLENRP
Sequence of Serine/threonine-protein kinase Sgk1 (Homo sapiens) (O00141 whole entry): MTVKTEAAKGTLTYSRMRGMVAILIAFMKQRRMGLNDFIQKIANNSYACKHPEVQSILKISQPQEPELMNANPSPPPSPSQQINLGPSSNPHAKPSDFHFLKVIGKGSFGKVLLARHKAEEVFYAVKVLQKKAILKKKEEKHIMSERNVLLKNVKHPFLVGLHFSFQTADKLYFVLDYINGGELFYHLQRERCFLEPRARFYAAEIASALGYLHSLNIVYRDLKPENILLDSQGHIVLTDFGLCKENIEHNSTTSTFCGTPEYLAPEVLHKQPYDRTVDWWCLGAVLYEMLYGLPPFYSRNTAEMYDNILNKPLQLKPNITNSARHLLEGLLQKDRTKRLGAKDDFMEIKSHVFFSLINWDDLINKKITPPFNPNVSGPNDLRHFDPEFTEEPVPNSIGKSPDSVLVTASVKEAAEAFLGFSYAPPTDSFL
Sequence of Serine/threonine-protein kinase 16 (Homo sapiens) (O75716 whole entry): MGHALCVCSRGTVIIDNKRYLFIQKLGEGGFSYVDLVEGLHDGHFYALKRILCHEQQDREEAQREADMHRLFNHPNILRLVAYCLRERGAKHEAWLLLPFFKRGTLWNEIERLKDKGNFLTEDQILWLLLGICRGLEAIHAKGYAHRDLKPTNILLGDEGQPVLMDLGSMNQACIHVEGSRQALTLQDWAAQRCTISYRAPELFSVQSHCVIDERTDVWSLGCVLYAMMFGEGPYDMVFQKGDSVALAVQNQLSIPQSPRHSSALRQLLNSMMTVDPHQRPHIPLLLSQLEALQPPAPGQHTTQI

SMILES: CNCc1ccccc1-c1csc([C@@H](C)Nc2nc(C)nc3cc(OC)c(OC)cc23)c1 [BAY-293]
- residual activity [1]: 98%
- residual activity [2]: 77%
- residual activity [3]: 100%
- residual activity [4]: 100%
- residual activity [5]: 93%
- residual activity [6]: 82%
- residual activity [7]: 79%
- inhibition [8]: 22.6%
- residual activity [9]: 95%
- residual activity [10]: 87%
- inhibition [11]: 56.5%
- residual activity [12]: 83%
- residual activity [13]: 95%
- residual activity [14]: 86%
- residual activity [15]: 86%
- residual activity [16]: 100%
- residual activity [17]: 81%
- Ki (D(3) dopamine receptor): 936 nM
- residual activity [18]: 85%
- residual activity [19]: 99%
- residual activity [20]: 100%
- residual activity [21]: 87%
- inhibition [22]: 17.1%
- residual activity [23]: 71%
- residual activity [24]: 79%
- residual activity [25]: 94%
- residual activity [26]: 73%
- residual activity [27]: 71%
- residual activity [28]: 83%
- residual activity [29]: 94%
- residual activity [30]: 100%
- Ki [31]: 623 nM
- residual activity [32]: 100%
- residual activity [33]: 75%
- residual activity [34]: 100%
- residual activity [35]: 93%
- residual activity [36]: 87%
- residual activity [37]: 93%
- residual activity [38]: 93%
- residual activity [39]: 100%
- residual activity [40]: 98%
- residual activity [41]: 57%
- residual activity [42]: 97%
- residual activity [43]: 86%
- residual activity [44]: 91%

SMILES: CNCc1ccccc1-c1csc([C@H](C)Nc2nc(C)nc3cc(OC)c(OC)cc23)c1 [BAY-294]
- residual activity [1]: 100%
- residual activity [2]: 93%
- residual activity [3]: 100%
- residual activity [4]: 100%
- residual activity [5]: 100%
- residual activity [6]: 98%
- residual activity [7]: 100%
- inhibition [8]: 49%
- residual activity [9]: 100%
- residual activity [10]: 100%
- inhibition [11]: 48%
- residual activity [12]: 91%
- residual activity [13]: 100%
- residual activity [14]: 97%
- residual activity [15]: 100%
- residual activity [16]: 100%
- residual activity [17]: 91%
- Ki (D(3) dopamine receptor): 869 nM
- residual activity [18]: 100%
- residual activity [19]: 100%
- residual activity [20]: 90%
- residual activity [21]: 79%
- inhibition [22]: 16%
- residual activity [23]: 80%
- residual activity [24]: 81%
- residual activity [25]: 95%
- residual activity [26]: 99%
- residual activity [27]: 74%
- residual activity [28]: 75%
- residual activity [29]: 76%
- residual activity [30]: 100%
- Ki [31]: 74.6 nM
- residual activity [32]: 100%
- residual activity [33]: 83%
- residual activity [34]: 87%
- residual activity [35]: 100%
- residual activity [36]: 100%
- residual activity [37]: 100%
- residual activity [38]: 100%
- residual activity [39]: 97%
- residual activity [40]: 100%
- residual activity [41]: 79%
- residual activity [42]: 100%
- residual activity [43]: 100%
- residual activity [44]: 97%
